The values that follow come from patent publication US9511134B2, “Inducing immune responses to influenza virus using polypeptide and nucleic acid compositions” (priority 2006, dated 2016).

Assay in all cases: biochemical
Common to all, as to type: binding

The target in experiment [1] is T1, DRB1*0101 (Homo sapiens, UniProt P01903+P01911, A100R/D57E/F55L/F60I/F76Y/I96L/L162R/M171V/P40L/Q125E/R42F/V115G/Y59C).
T1 construct: made in house; host or cells: EBV-transformed homozygous human B cell lines, transfected fibroblasts or single-allele 721.221 transfectants
Particulars: IC50 nM to purified HLA DRB1*0101.

Experiment [2] concerns the target DRB1*1302 (Homo sapiens, UniProt P01903+P01911, A100E/A169T/K41T/L162R/M171V/P40S/Q125H/Q178H/Q39Y/Q99D/R42S/S66N/T262R/V115G/W38E/Y61H). The conditions noted are these: read-out: IC50 nM to purified HLA DRB1*1302.
Experiment [3] addresses T2, DRB1*1501 (Homo sapiens, UniProt P01903+P01911).
T2 construct: made in house; host or cells: EBV-transformed homozygous human B cell lines, transfected fibroblasts or single-allele 721.221 transfectants
Particulars: read-out: IC50 nM to purified HLA DRB1*1501.

The target of experiment [4] is T3, DRB1*0401 (Homo sapiens, UniProt P01903+P01911, A100K/A169T/F76Y/I96L/K127E/L162R/M171V/N62H/P40V/Q125Y/R42H/S133A/S149N/S66Y/V115G/V209L/W38E).
T3 construct: made in house; host or cells: EBV-transformed homozygous human B cell lines, transfected fibroblasts or single-allele 721.221 transfectants
Particulars: read-out: IC50 nM to purified HLA DRB1*0401.

Sequence of DRB1*1302 (P01903 26-254 limits assumed, other chains not shown): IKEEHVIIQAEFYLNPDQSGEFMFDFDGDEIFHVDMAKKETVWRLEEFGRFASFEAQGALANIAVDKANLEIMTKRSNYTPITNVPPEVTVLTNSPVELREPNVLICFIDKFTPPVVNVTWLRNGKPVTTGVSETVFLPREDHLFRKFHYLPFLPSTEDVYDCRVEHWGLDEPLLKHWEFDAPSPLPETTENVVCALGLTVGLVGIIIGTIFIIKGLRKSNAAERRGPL

On to `CC[C@H](C)[C@H](NC(=O)[C@H](C)NC(=O)[C@H](CC(=O)O)NC(=O)[C@H](CC(N)=O)NC(=O)[C@@H]1CCCN1C(=O)[C@H](CCCCN)NC(=O)[C@H](CC(C)C)NC(=O)[C@@H](NC(=O)[C@@H](NC(=O)[C@H](Cc1c[nH]c2ccccc12)NC(=O)[C@H](Cc1ccccc1)NC(=O)[C@H](Cc1ccccc1)NC(=O)[C@H](CCC(=O)O)NC(=O)[C@H](CCSC)NC(=O)[C@@H](N)CCCNC(=N)N)[C@@H](C)O)[C@@H](C)CC)C(=O)O` [Flu.HA.241], for which, in experiment [1], half-maximal inhibition (IC50) was put at 62 nM. For `CC[C@H](C)[C@H](NC(=O)[C@@H](NC(=O)[C@H](CCC(=O)O)NC(=O)[C@H](CCSC)NC(=O)[C@@H](N)[C@@H](C)O)C(C)C)C(=O)N[C@@H](CCC(N)=O)C(=O)N[C@@H](CCC(N)=O)C(=O)N[C@H](C(=O)N[C@@H](CCCNC(=N)N)C(=O)N[C@H](C(=O)N[C@@H](CC(=O)O)C(=O)N[C@@H](CCCCN)C(=O)N[C@@H](CC(C)C)C(=O)N[C@H](C(=O)N[C@@H](CCC(N)=O)C(=O)O)[C@@H](C)O)C(C)C)[C@@H](C)O` [Flu.PB1.113], the IC50 in experiment [2] worked out at 180 nM. In experiment [1], `CC(C)C[C@H](NC(=O)CNC(=O)[C@@H](NC(=O)[C@H](C)NC(=O)[C@H](CC(C)C)NC(=O)[C@@H](NC(=O)[C@H](CC(C)C)NC(=O)[C@H](CCCNC(=N)N)NC(=O)[C@@H](N)CC(N)=O)C(C)C)[C@@H](C)O)C(=O)N[C@@H](CCCNC(=N)N)C(=O)N[C@@H](CC(N)=O)C(=O)N[C@@H](CO)C(=O)N1CCC[C@H]1C(=O)N[C@@H](CCC(N)=O)C(=O)N[C@@H](CCCNC(=N)N)C(=O)O` [Flu.HA.325] registered a concentration for half-maximal inhibition (IC50) of 69 nM. As to `CC[C@H](C)[C@H](NC(=O)[C@H](C)NC(=O)[C@H](CC(=O)O)NC(=O)[C@H](CC(N)=O)NC(=O)[C@@H]1CCCN1C(=O)[C@H](CCCCN)NC(=O)[C@H](CC(C)C)NC(=O)[C@@H](NC(=O)[C@@H](NC(=O)[C@@H](N)Cc1c[nH]c2ccccc12)[C@@H](C)O)[C@@H](C)CC)C(=O)N[C@@H](CC(N)=O)C(=O)N[C@@H](Cc1ccccc1)C(=O)N[C@@H](CCC(=O)O)C(=O)N[C@@H](CO)C(=O)N[C@@H](CC(N)=O)C(=O)O` [Flu.HA.246], the IC50 in experiment [2] was found to be 31 nM. Take `CC[C@H](C)[C@H](NC(=O)[C@H](CC(C)C)NC(=O)[C@@H](NC(=O)[C@H](CCC(=O)O)NC(=O)[C@H](CC(C)C)NC(=O)[C@H](CCCNC(=N)N)NC(=O)[C@H](CC(=O)O)NC(=O)[C@H](Cc1ccccc1)NC(=O)[C@@H](NC(=O)[C@@H](NC(=O)[C@H](CO)NC(=O)[C@H](Cc1ccccc1)NC(=O)[C@@H](N)CC(N)=O)C(C)C)[C@@H](C)CC)[C@@H](C)O)C(=O)N[C@@H](CC(C)C)C(=O)N[C@@H](CC(C)C)C(=O)O` [Flu.NS1.136]: the IC50 in experiment [3] worked out at 6930 nM; in experiment [1] it was 17 nM. `CC[C@H](C)[C@H](NC(=O)[C@H](CCCCN)NC(=O)[C@@H](N)Cc1c[nH]cn1)C(=O)N[C@@H](Cc1ccccc1)C(=O)N[C@@H](CCCCN)C(=O)N[C@@H](CCSC)C(=O)N[C@@H](CCC(=O)O)C(=O)N[C@@H](CCCCN)C(=O)NCC(=O)N[C@@H](CCCCN)C(=O)N[C@H](C(=O)N[C@H](C(=O)N[C@@H](CCCCN)C(=O)N[C@@H](CO)C(=O)N[C@H](C(=O)N[C@@H](CCC(=O)O)C(=O)N[C@@H](CC(C)C)C(=O)O)C(C)C)C(C)C)C(C)C` [Flu.NA.233] had an IC50 in experiment [1] of 64 nM.

With `CC[C@H](C)[C@H](NC(=O)[C@H](CCC(=O)O)NC(=O)[C@H](CCC(N)=O)NC(=O)[C@H](CCC(=O)O)NC(=O)[C@@H](NC(=O)[C@H](CCC(=O)O)NC(=O)[C@H](Cc1ccccc1)NC(=O)[C@@H](N)CC(C)C)C(C)C)C(=O)N[C@@H](CCCNC(=N)N)C(=O)N[C@H](C(=O)N[C@@H](Cc1ccccc1)C(=O)N[C@@H](CO)C(=O)N[C@@H](Cc1ccccc1)C(=O)N[C@@H](CCC(N)=O)C(=O)N[C@@H](CC(C)C)C(=O)O)[C@@H](C)O` [Flu.NS2.182], the IC50 in experiment [4] is 8800 nM. On to `CC[C@H](C)[C@H](NC(=O)CNC(=O)[C@H](CCCNC(=N)N)NC(=O)[C@H](CCC(N)=O)NC(=O)[C@H](CO)NC(=O)[C@@H](NC(=O)[C@H](CC(N)=O)NC(=O)[C@H](CC(C)C)NC(=O)[C@@H](NC(=O)[C@H](CO)NC(=O)[C@@H](N)CCCNC(=N)N)[C@@H](C)CC)[C@@H](C)O)C(=O)N[C@@H](CC(C)C)C(=O)N[C@@H](CCC(=O)O)C(=O)N[C@@H](CC(=O)O)C(=O)N[C@@H](CCC(=O)O)C(=O)O` [Flu.PB1.675], for which the IC50 is 71 nM in experiment [2] and 94 nM in experiment [1].

Turning to `CC[C@H](C)[C@H](NC(=O)[C@@H](NC(=O)[C@@H](N)CC(=O)O)C(C)C)C(=O)N[C@@H](CCSC)C(=O)N[C@@H](CCC(=O)O)C(=O)N[C@H](C(=O)N[C@H](C(=O)N[C@@H](Cc1ccccc1)C(=O)N1CCC[C@H]1C(=O)N[C@@H](CC(N)=O)C(=O)N[C@@H](CCC(=O)O)C(=O)N[C@H](C(=O)NCC(=O)N[C@@H](C)C(=O)N[C@@H](CCCNC(=N)N)C(=O)O)C(C)C)C(C)C)C(C)C` [Flu.PB2.164], in experiment [4], the IC50 is 1100 nM. For the compound `CC(C)C[C@H](NC(=O)[C@H](CCCCN)NC(=O)[C@@H](NC(=O)[C@H](CO)NC(=O)[C@H](C)NC(=O)[C@@H](NC(=O)[C@H](C)NC(=O)[C@H](CCCCN)NC(=O)[C@H](CCC(=O)O)NC(=O)[C@@H](NC(=O)[C@H](CC(C)C)NC(=O)[C@H](Cc1ccccc1)NC(=O)[C@H](CC(N)=O)NC(=O)[C@@H](NC(=O)[C@@H](N)CC(N)=O)[C@@H](C)O)[C@@H](C)O)C(C)C)C(C)C)C(=O)N[C@@H](C)C(=O)O` [Flu.NA.51], in experiment [3], the IC50 was determined as 47 nM.

For `CC(C)C[C@H](NC(=O)[C@H](Cc1c[nH]cn1)NC(=O)[C@H](CO)NC(=O)[C@@H](N)CCCNC(=N)N)C(=O)N[C@@H](CCCNC(=N)N)C(=O)N[C@@H](CC(N)=O)C(=O)N[C@@H](CC(=O)O)C(=O)N[C@H](C(=O)N[C@@H](CC(=O)O)C(=O)N[C@H](C(=O)N[C@H](C(=O)N[C@@H](CC(N)=O)C(=O)N[C@@H](Cc1ccccc1)C(=O)N[C@H](C(=O)N[C@@H](CO)C(=O)O)C(C)C)C(C)C)C(C)C)[C@@H](C)O` [Flu.PA.511], the IC50 in experiment [4] stood at 200 nM. For `CSCC[C@H](NC(=O)[C@H](CO)NC(=O)[C@H](Cc1ccccc1)NC(=O)[C@H](CC(N)=O)NC(=O)[C@H](C)NC(=O)[C@@H](N)C(C)C)C(=O)N[C@@H](CCC(=O)O)C(=O)N[C@@H](CC(C)C)C(=O)N1CCC[C@H]1C(=O)N[C@@H](CO)C(=O)N[C@@H](Cc1ccccc1)C(=O)NCC(=O)N[C@H](C(=O)N[C@@H](CO)C(=O)NCC(=O)O)C(C)C` [Flu.PB1.505], the IC50 worked out at 17 nM in experiment [4] and 20 nM in experiment [1]. As for `CSCC[C@H](NC(=O)[C@H](CC(C)C)NC(=O)[C@H](CCC(=O)O)NC(=O)[C@@H](N)Cc1c[nH]c2ccccc12)C(=O)N[C@@H](CC(=O)O)C(=O)N[C@@H](CCC(=O)O)C(=O)N[C@@H](CC(=O)O)C(=O)N[C@@H](Cc1ccc(O)cc1)C(=O)N[C@@H](CCC(N)=O)C(=O)NCC(=O)N[C@@H](CCCNC(=N)N)C(=O)N[C@@H](CC(C)C)C(=O)N[C@@H](CS)C(=O)N[C@@H](CC(N)=O)C(=O)N1CCC[C@H]1C(=O)O` [Flu.PB1.616], the IC50 in experiment [4] stood at 480 nM. Compound `CC[C@H](C)[C@H](NC(=O)[C@H](CCC(=O)O)NC(=O)[C@H](CCSC)NC(=O)[C@H](CCC(=O)O)NC(=O)[C@H](CCC(=O)O)NC(=O)[C@@H](N)CCCCN)C(=O)N[C@H](C(=O)N[C@H](C(=O)N[C@@H](Cc1c[nH]cn1)C(=O)N[C@@H](Cc1ccccc1)C(=O)N[C@@H](CCC(N)=O)C(=O)N[C@@H](CCCNC(=N)N)C(=O)N[C@@H](CCCCN)C(=O)N[C@@H](CCCNC(=N)N)C(=O)N[C@@H](CCCNC(=N)N)C(=O)O)[C@@H](C)O)[C@@H](C)O` [Flu.PB1.179] showed an IC50 in experiment [1] of 1400 nM. `CC[C@H](C)[C@H](NC(=O)[C@@H](NC(=O)[C@H](CCSC)NC(=O)[C@H](CC(=O)O)NC(=O)[C@@H](NC(=O)[C@H](CC(C)C)NC(=O)[C@H](Cc1ccc(O)cc1)NC(=O)[C@H](CCCNC(=N)N)NC(=O)[C@H](CO)NC(=O)[C@H](C)N)[C@@H](C)O)[C@@H](C)O)C(=O)N[C@@H](CCC(=O)O)C(=O)N[C@@H](CCC(=O)O)C(=O)N[C@@H](CCSC)C(=O)N[C@@H](CO)C(=O)N[C@@H](CCCNC(=N)N)C(=O)O` [Flu.NS1.89]: the values for the IC50 in experiment [4] and in experiment [1] were 67 nM and 6030 nM, respectively. `CC[C@H](C)[C@H](NC(=O)CNC(=O)[C@@H](NC(=O)[C@@H](N)CCSC)[C@@H](C)CC)C(=O)N[C@@H](CC(C)C)C(=O)N1CCC[C@H]1C(=O)N[C@@H](CC(=O)O)C(=O)N[C@@H](CCSC)C(=O)N[C@H](C(=O)N1CCC[C@H]1C(=O)N[C@@H](CO)C(=O)N[C@H](C(=O)N[C@@H](CCC(=O)O)C(=O)N[C@@H](CCSC)C(=O)N[C@@H](CO)C(=O)O)[C@@H](C)O)[C@@H](C)O` [Flu.PB2.463]: the IC50 in experiment [4] was 31 nM. As for `CC[C@H](C)[C@H](NC(=O)[C@H](Cc1ccc(O)cc1)NC(=O)[C@@H](NC(=O)[C@@H](NC(=O)[C@@H]1CCCN1)[C@@H](C)O)[C@@H](C)O)C(=O)N[C@@H](CO)C(=O)N[C@H](C(=O)NCC(=O)N[C@H](C(=O)N[C@@H](CO)C(=O)N[C@H](C(=O)N[C@@H](CC(C)C)C(=O)N[C@@H](CC(N)=O)C(=O)N[C@@H](CCC(N)=O)C(=O)N[C@@H](CCCNC(=N)N)C(=O)N[C@@H](CC(C)C)C(=O)O)[C@@H](C)O)[C@@H](C)O)C(C)C` [Flu.HA.210], the figures for the IC50 in experiment [4], in experiment [2] and in experiment [1] were 59 nM, 957 nM and 190 nM, respectively.

What is called IC50 is the concentration needed to halve the response being measured.
